Assay: mn = molality of the nth substance listed, in mol/kg
Conditions: 100 kPa, Liquid, Frequency=2 MHz, Linear variable-path acoustic interferometer

N.O=P(O)(O)O [ammonium dihydrogen phosphate] + O
speed of sound [m/s]
Conditions | 288.15 K | 298.15 K | 308.15 K | 318.15 K
m1 = 0.5 | 1506.4 | 1534.2 | 1555.1 | 1570.8
m1 = 1 | 1554.5 | 1579.6 | 1598.1 | 1610.2
m1 = 1.5 | 1609.2 | 1629.9 | 1645.1 | 1654.4
m1 = 2 | 1672.6 | 1686.2 | 1697.2 | 1703.1

CO[C@H]1O[C@H](CO)[C@@H](O)[C@H](O)[C@H]1O [methyl-α-D-glucopyranoside] + O
speed of sound [m/s]
Conditions | m1 = 0.05678 | m1 = 0.06847 | m1 = 0.08732 | m1 = 0.1192 | m1 = 0.1293 | m1 = 0.1466
288.15 K | 1470.7 | 1471.7 | 1473.2 | 1475.8 | 1476.6 | 1478
298.15 K | 1501.2 | 1502 | 1503.5 | 1506 | 1506.7 | 1508
308.15 K | 1524 | 1524.9 | 1526.3 | 1528.6 | 1529.4 | 1530.6
318.15 K | 1540.5 | 1541.3 | 1542.7 | 1545 | 1545.7 | 1546.9

O=P([O-])(O)O.[Na+] [sodium dihydrogen phosphate] + O
speed of sound [m/s]
Conditions | 288.15 K | 298.15 K | 308.15 K | 318.15 K
m1 = 0.5 | 1516.7 | 1547.3 | 1567.5 | 1582.6
m1 = 1 | 1563.2 | 1598 | 1618.9 | 1638.8
m1 = 1.5 | 1607.3 | 1649 | 1675 | 1704.8
m1 = 2 | 1649.2 | 1700.3 | 1735.7 | 1782.8

O=P([O-])([O-])[O-].[K+].[K+].[K+] [tripotassium phosphate] + O
speed of sound [m/s]
Conditions | 288.15 K | 298.15 K | 308.15 K | 318.15 K
m1 = 0.5 | 1586.2 | 1598.1 | 1609.9 | 1622.6
m1 = 1 | 1693.5 | 1698.6 | 1704.1 | 1708
m1 = 1.5 | 1789.2 | 1791.8 | 1793.8 | 1796
m1 = 2 | 1878.3 | 1882.5 | 1885.8 | 1889.4

Source: the NIST ThermoML archive (doi:10.1021/acs.jced.8b00681)
